Test systems include BT-549; HL-60; HCT-15; SNB-19; KM12; SK-MEL-5; SR; HT-29; SK-MEL-2; Hs-578T; SK-MEL-28; HOP-92; SF-539; NCI-H23; DU-145; MDA-MB-231; UACC-257; RPMI-8226; NCI-H226.
What all share (test): NCI anticancer screen, dose series, 48 h

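Where inhibition never reached the appropriate level, the endpoint shown equals the highest concentration tested. Otherwise, values were interpolated linearly from a five-concentration, 48-hour dose response in 96-well plates. Abbreviation: GI50, concentration required for 50% inhibition of growth.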 Active and inactive are the calls of the source. Cut-off read from the data, not from the text of the source: active = GI50 up to about 1.1 µM and inactive = higher.

As for `CC1(C)C2CCC1(C)C(OC(=O)/C=C/C(=O)OC1CC3CCC1(C)C3(C)C)C2` (centres undefined), the GI50 was 44.7 µM (inactive) in the assay on BT-549; 16.9 µM (inactive) in the assay on HL-60; 68.7 µM in the assay with HCT-15; 51.4 µM (inactive) with SNB-19; > 100 µM (inactive) in the assay on KM12; 17.9 µM (inactive) in the assay on SK-MEL-5. The GI50 in the assay on SR is 20.1 µM (inactive); with HT-29 it was 40 µM (inactive); in the assay on SK-MEL-2 it was 61.7 µM (inactive); with Hs-578T it was 63 µM (inactive); with SK-MEL-28, 18.9 µM (inactive); in the assay with HOP-92, 24.8 µM (inactive). In addition, the GI50 with SF-539 is > 100 µM (inactive); in the assay with NCI-H23 it was 47.9 µM (inactive); with DU-145, > 100 µM (inactive); in the assay on MDA-MB-231 it was > 100 µM (inactive); in the assay with UACC-257 it was 31 µM (inactive).
Turning to `Cc1cc2c(c(=O)o1)C1=S(SC(c3ccccc3)=C1)S2` (centres undefined), the GI50 in the assay on BT-549 was > 100 µM (inactive); in the assay on HCT-15, greater than 100 µM; in the assay on SNB-19 it was 28.2 µM (inactive); in the assay on KM12, 84.3 µM (inactive); in the assay on SK-MEL-5, 47.4 µM (inactive); in the assay on RPMI-8226, 55.6 µM (inactive). The GI50 is 18.3 µM (inactive) with SR; 38.9 µM (inactive) in the assay on HT-29; 66.4 µM (inactive) with SK-MEL-2; 41.2 µM (inactive) with Hs-578T; > 100 µM (inactive) with SK-MEL-28; 20.8 µM (inactive) in the assay with HOP-92. Further, the GI50 was 24.3 µM (inactive) with SF-539; 78.9 µM (inactive) with NCI-H23; 36.3 µM (inactive) with DU-145; 57.4 µM (inactive) in the assay with MDA-MB-231; > 100 µM (inactive) with UACC-257.
For the compound `N=C1C(O)C2(I)c3ccccc3N3C(=N)C(O)C4c5ccccc5N1C4C32` (centres undefined), the GI50 in the assay with BT-549 is > 100 µM (inactive); with HL-60, 20.2 µM (inactive); in the assay with HCT-15, 32.3 µM; with SNB-19 it was 63.7 µM (inactive); in the assay with KM12, 15.1 µM (inactive); in the assay on SK-MEL-5, 30.8 µM (inactive). For the same compound, the GI50 was 40.9 µM (inactive) with RPMI-8226; 34.3 µM (inactive) with SR; 95.1 µM (inactive) in the assay on HT-29; > 100 µM (inactive) with SK-MEL-2; 61.8 µM (inactive) in the assay on Hs-578T; 90.6 µM (inactive) with SK-MEL-28. For the same compound, the GI50 in the assay on HOP-92 is 37.4 µM (inactive); with NCI-H23, 35.6 µM (inactive); with DU-145, > 100 µM (inactive); in the assay with MDA-MB-231 it was 26.4 µM (inactive); in the assay with UACC-257 it was > 100 µM (inactive).
`CC1C2CCC3C(O)C2(CC(O)C2(O)C1CC(O)C2(C)C)CC3(C)O` (centres undefined): the GI50 in the assay on BT-549 is > 100 µM (inactive); with HL-60 it was > 100 µM (inactive); in the assay on HCT-15, greater than 100 µM; with SNB-19, > 100 µM (inactive); in the assay on KM12, > 100 µM (inactive); in the assay with SK-MEL-5 it was > 100 µM (inactive). The GI50 with SR, in the assay on HT-29, in the assay with NCI-H226, in the assay with SK-MEL-2, in the assay on Hs-578T and with SK-MEL-28 was > 100 µM (inactive) in each case. Also, the GI50 in the assay with HOP-92 is > 100 µM (inactive); with SF-539, > 100 µM (inactive); in the assay on NCI-H23, > 100 µM (inactive); in the assay on DU-145, > 100 µM (inactive); in the assay with MDA-MB-231, 35.8 µM (inactive); with UACC-257, > 100 µM (inactive).

These data come from ChEMBL document CHEMBL1201862, “PubChem BioAssay data set” (2004).
